Earlier results as cited in patent publication US6680306B2, “Method for enhancing the effectiveness of cancer therapies” (GlycoGenesys, Inc., priority 2001, dated 2004).

Experiments:
[1] = test system: galectin-3 transfected BT549 cells; conditions: galectin-3 transfected BT549 cells treated with genistein
BT549 cells = conditions: BT549 human breast epithelial cell line that does not express detectable levels of galectin-3

Compound: O=c1c(-c2ccc(O)cc2)coc2cc(O)cc(O)c12 [genistein]
- cell cycle arrest / apoptosis induction [1]: cell cycle arrest at the G(2)/M phase takes place without apoptosis induction
- apoptosis induction (BT549 cells): effectively induces apoptosis, without detectable cell cycle arrest
